Results on one compound are retold here after patent EP3409787A1, “TWO SNPS (SINGLE NUCLEOTIDE POLYMORPHISMS) IN THE SEQUENCE OF THE BETA, BETA-CAROTENE 15,15 DIOXYGENASE GENE AND THEIR USE” (DSM IP Assets B.V., priority 2017, dated 2018).

This experiment in a line: Supplementation study: Total Body Stores of vitamin A (TBS) by isotope dilution with [13C10] retinyl acetate. The format is in vivo, human subjects. The note with it: 7 mg beta-carotene daily, 54 days, humans.

Excerpt: The person skilled in art knows how to determine the Total Body Stores (TBS) of vitamin A, e.g. by determining the [^13C10] retinyl acetate dose after a sufficient period (circa 3 days) of isotope dilution with endogenous pools.
The study underlying the present invention analyzed inter alia the Total Body Store of vitamin A (TBS) using an isotope dilution method and [^13C10] retinol concentrations, and determined the effect of the rs7501331 or rs6564851 SNPs on BCO1 enzyme activity. To enable the analysis of SNPs on TBS, stepwise multiple regression was performed using the Akaike Information Criterion (AIC) to evaluate the covariates dietary intake of retinol, provitamin A carotenoids and retinol equivalents, age, BMI and body fat. The most significant covariant used for the selective model to analyze the SNP and TBS interaction was dietary retinol equivalent, with an AIC of 276.5. Thus, the final model tested the effects of the rs7501331 or rs6564851 SNPs on TBS at both baseline and after 54 days of supplementation accounting for dietary retinol equivalent as the only co-variant in the analysis.
The study was a randomized, single blind supplementation design combined with retrospective genotyping to test three beta-carotene formulations (7mg β-carotene/day) for a period of 8 weeks. […] On day 1 and 57 of each supplementation period, a fasting blood sample was taken before the oral administration of 2 mg of [^13C10] β-carotene and 0.4 mg of [^13C10] retinyl acetate as part of a test breakfast meal. Further blood samples were taken at 2, 4, 6, 8, 10 and 12 hours post-dose. For the first formulation (BetaTab 20%S) single fasting blood samples were also taken at day 2, 3, 4, 8, 10, 22, 36 and day 57 of the 8 week supplementation period followed by fasting blood samples at day 58, 59, 60, 64, 66, 78, 92 and 113 during the wash-out period. […] However, overall body retinol homeostasis was determined using supplement 1 (BetaTab 20% S).

For the compound `CC1=C(/C=C/C(C)=C/C=C/C(C)=C/C=C/C=C(C)/C=C/C=C(C)/C=C/C2=C(C)CCCC2(C)C)C(C)(C)CCC1` [beta-carotene], the “effect of rs7501331 (A379V) SNP / dominant T variant on TBS values after supplementation” value was “can overcome” and the “effect of the rs6564851 SNPs on TBS after supplementation” value is on record as “does not disappear”. Moreover, the “effect of rs7501331 (A379V) SNP / dominant T variant on TBS values after supplementation” value (listed as ß-carotene) was “disappeared”.
